# From PubChem BioAssay AID2060624 (Molecular Pharmacology Branch, DTP, NCI, 2025)
# System: 217524-143-R1-J4-PDC spheroids with HUVEC/MSC, viability
# Experiment: Anticancer human tumor 217524-143-R1-J4-PDC patient-derived pancreatic carcinoma cell line growth inhibition [CLK]
# Details: for IC50: curve of first compound; for viability, T/C: stronger effect = lower value
# Summary of the method: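 Patient-derived tumor cells grown as complex spheroids with HUVEC endothelial cells and mesenchymal stem cells, treated with drug combinations. Concentrations descend in half-log steps from near clinical Cmax, or from 10 microM if Cmax unknown.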
# [1] = second compound 0.0316 µM, first compound 0.0316 µM
# [2] = second compound 0.0316 µM, first compound 0.1 µM
# [3] = second compound 0.0316 µM, first compound 0.316 µM
# [4] = second compound 0.0316 µM, first compound 1 µM
# [5] = second compound 0.1 µM, first compound 0.0316 µM
# [6] = second compound 0.1 µM, first compound 0.1 µM
# [7] = second compound 0.1 µM, first compound 0.316 µM
# [8] = second compound 0.1 µM, first compound 1 µM
# [9] = second compound 0.316 µM, first compound 0.0316 µM
# [10] = second compound 0.316 µM, first compound 0.1 µM
# [11] = second compound 0.316 µM, first compound 0.316 µM
# [12] = second compound 0.316 µM, first compound 1 µM
# [13] = second compound 1 µM, first compound 0.0316 µM
# [14] = second compound 1 µM, first compound 0.1 µM
# [15] = second compound 1 µM, first compound 0.316 µM
# [16] = second compound 1 µM, first compound 1 µM
# [17] = second compound 3.16 µM, first compound 0.0316 µM
# [18] = second compound 3.16 µM, first compound 0.1 µM
# [19] = second compound 3.16 µM, first compound 0.316 µM
# [20] = second compound 3.16 µM, first compound 1 µM
# [21] = second compound 10 µM, first compound 0.0316 µM
# [22] = second compound 10 µM, first compound 0.1 µM
# [23] = second compound 10 µM, first compound 0.316 µM
# [24] = second compound 10 µM, first compound 1 µM
# 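Further: spheroids exposed to agents for seven days before reading.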
# 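Wherever viability, T/C is given: 100% = DMSO vehicle control viability.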
compound,measurement,setting,value
CC(=O)O[C@H]1C(=O)[C@@]2(C)[C@H]([C@H](OC(=O)c3ccccc3)[C@]3(O)C[C@H](OC(=O)[C@H](O)[C@@H](NC(=O)c4ccccc4)c4ccccc4)C(C)=C1C3(C)C)[C@]1(OC(C)=O)CO[C@@H]1C[C@@H]2O + CN1CCN(c2cc(C(=O)Nc3cc4cc(-c5cnn(C)c5)ccc4cn3)ccn2)CC1,IC50,second compound 0.0316 µM,< 31.6 nM
same,IC50,second compound 0.1 µM,< 31.6 nM
same,IC50,second compound 0.316 µM,< 31.6 nM
same,IC50,second compound 1 µM,< 31.6 nM
same,IC50,second compound 3.16 µM,< 31.6 nM
same,IC50,second compound 10 µM,< 31.6 nM
same,"viability, T/C",[1],14.5%
same,"viability, T/C",[2],10.6%
same,"viability, T/C",[3],10.8%
same,"viability, T/C",[4],11.5%
same,"viability, T/C","second compound 0.0316 µM, first compound 3.16 µM",12.1%
same,"viability, T/C","second compound 0.0316 µM, first compound 10 µM",16.4%
same,"viability, T/C",[5],11.9%
same,"viability, T/C",[6],12.1%
same,"viability, T/C",[7],9.82%
same,"viability, T/C",[8],10.7%
same,"viability, T/C","second compound 0.1 µM, first compound 3.16 µM",10.8%
same,"viability, T/C","second compound 0.1 µM, first compound 10 µM",13.2%
same,"viability, T/C",[9],11.1%
same,"viability, T/C",[10],11.3%
same,"viability, T/C",[11],10.7%
same,"viability, T/C",[12],9.41%
same,"viability, T/C","second compound 0.316 µM, first compound 3.16 µM",11.7%
same,"viability, T/C","second compound 0.316 µM, first compound 10 µM",12.3%
same,"viability, T/C",[13],1.11%
same,"viability, T/C",[14],1.3%
same,"viability, T/C",[15],1.35%
same,"viability, T/C",[16],1.2%
same,"viability, T/C","second compound 1 µM, first compound 3.16 µM",2%
same,"viability, T/C","second compound 1 µM, first compound 10 µM",1.13%
same,"viability, T/C",[17],0.88%
same,"viability, T/C",[18],0.73%
same,"viability, T/C",[19],0.55%
same,"viability, T/C",[20],0.62%
same,"viability, T/C","second compound 3.16 µM, first compound 3.16 µM",1.1%
same,"viability, T/C","second compound 3.16 µM, first compound 10 µM",0.74%
same,"viability, T/C",[21],0.12%
same,"viability, T/C",[22],0.17%
same,"viability, T/C",[23],0.16%
same,"viability, T/C",[24],0.2%
same,"viability, T/C","second compound 10 µM, first compound 3.16 µM",0.34%
same,"viability, T/C","second compound 10 µM, first compound 10 µM",0.24%
CCc1c2c(nc3ccc(O)cc13)-c1cc3c(c(=O)n1C2)COC(=O)[C@]3(O)CC + CN1CCN(c2cc(C(=O)Nc3cc4cc(-c5cnn(C)c5)ccc4cn3)ccn2)CC1,IC50,second compound 0.0316 µM,< 3.16 nM
same,IC50,second compound 0.1 µM,< 3.16 nM
same,IC50,second compound 0.316 µM,< 3.16 nM
same,IC50,second compound 1 µM,< 3.16 nM
same,IC50,second compound 3.16 µM,< 3.16 nM
same,IC50,second compound 10 µM,< 3.16 nM
same,"viability, T/C","second compound 0.0316 µM, first compound 0.00316 µM",46.2%
same,"viability, T/C","second compound 0.0316 µM, first compound 0.01 µM",34.1%
same,"viability, T/C",[1],28.7%
same,"viability, T/C",[2],25.2%
same,"viability, T/C",[3],17.5%
same,"viability, T/C",[4],6.45%
same,"viability, T/C","second compound 0.1 µM, first compound 0.00316 µM",35.9%
same,"viability, T/C","second compound 0.1 µM, first compound 0.01 µM",30.1%
same,"viability, T/C",[5],21.9%
same,"viability, T/C",[6],17.5%
same,"viability, T/C",[7],14.5%
same,"viability, T/C",[8],5.83%
same,"viability, T/C","second compound 0.316 µM, first compound 0.00316 µM",14.8%
same,"viability, T/C","second compound 0.316 µM, first compound 0.01 µM",12.7%
same,"viability, T/C",[9],10.8%
same,"viability, T/C",[10],4%
same,"viability, T/C",[11],2.32%
same,"viability, T/C",[12],1.82%
same,"viability, T/C","second compound 1 µM, first compound 0.00316 µM",1.37%
same,"viability, T/C","second compound 1 µM, first compound 0.01 µM",1.13%
same,"viability, T/C",[13],0.98%
same,"viability, T/C",[14],1.39%
same,"viability, T/C",[15],1.84%
same,"viability, T/C",[16],2.32%
same,"viability, T/C","second compound 3.16 µM, first compound 0.00316 µM",1.13%
same,"viability, T/C","second compound 3.16 µM, first compound 0.01 µM",0.69%
same,"viability, T/C",[17],1.06%
same,"viability, T/C",[18],1.74%
same,"viability, T/C",[19],1.87%
same,"viability, T/C",[20],2.05%
same,"viability, T/C","second compound 10 µM, first compound 0.00316 µM",0.09%
same,"viability, T/C","second compound 10 µM, first compound 0.01 µM",0.16%
same,"viability, T/C",[21],0.24%
same,"viability, T/C",[22],0.19%
same,"viability, T/C",[23],0.31%
same,"viability, T/C",[24],0.19%
